The structures appear in SMILES notation.

The nature of the data set: Physical stability of the polymorphic form on repeated preparation. The data set is classed as physicochemical. The settings on record: successive preparations of Form IV turned out as mixtures of Form IV and Form III. On the procedure: The form was prepared by suspending a freshly prepared Form II in water free ethanol. Separation of the suspended matter was conducted after 24 hours and subsequent drying under vacuum.
Form IV can also be obtained from suspension of Form III by the same procedure as described using Form II.
Successive preparations of Form IV turned out as mixtures of Form IV and Form III, indicating difficulties in producing Form IV

For `COC[C@@H]1[C@@H](c2ccc(Cl)c(Cl)c2)C[C@@H]2CC[C@H]1N2.O=C(O)C(O)C(O)C(=O)O` [Form IV, (1R,2R,3S,5S)-2-methoxymethyl-3-(3,4-dichlorophenyl)-8-azabicyclo[3.2.1]octane L-tartrate anhydrate (Form IV)], the “physical stability of the crystal form” value is recorded as “physically metastable”.
